According to PMC12022909, “A Multicomponent Reaction-Based Platform Opens New Avenues in Aryl Hydrocarbon Receptor Modulation” (ACS Central Science, 2025):
pEC50: −log10 of the molar value.

Tests used:
HaCaT cells = tested on: HaCaT cells; set-up: method as in PMID 25431849, PMID 34418602; settings: cited from earlier work
AhR-GFP = target: T1, AhR-GFP (Homo sapiens, UniProt P35869); test: MCF7 AhR-GFP.IRES.mCherry reporter, flow cytometry quantification of AhR protein levels; type: cell-based; settings: 5 μM, 5 h
T1 construct: host or cells: MCF7, lentiviral transduction
Protocol: (§1) Figure 6 Bifunctional AhR probes and AhR reporter in MCF7 cells. (a) Synthetic access to the conjugatable AhR ligand 5m. (b) Structure, yield, and EC50 value of the model amide 12a and MD simulation of AhR with 12a (last snapshot). (c) PROTAC-like compound 12b and dual probes 12c–d. Reaction conditions: (a) 5m (1 equiv), amine (1 equiv), HATU, DIPEA, DMF, rt, 24 h, Ar atm; (b) 5m (2 equiv), diamine (1 equiv), HATU, DIPEA, DMF, rt, 24 h, Ar atm. (d) General setup of the reporter system for quantifying AhR protein levels. (e) The population of MCF7 reporter cells (MCF7 AhR-GFP.IRES.mCherry) gated by flow cytometry and used for quantification of AhR. […] Values represent the ratio of the geometric mean of GFP and mCherry values in the gated population. (g) Change in protein levels relative to vehicle treatment (DMSO) in MCF7 cells treated with 12b at 10 μM for 5 h quantified by TMT labeling and LC/MS analysis versus p-Value. TEXT PRINTED IN THE PICTURE: (b) 12a: EC50 = 0.40 μM […]
To test the effect of these compounds on AhR abundance, we established a cellular reporter in the breast cancer cell line MCF7. AhR in this case is fused to GFP bearing an independently translated mCherry on the same transcript to allow correction for general transcriptional interference of treatments (Figure 6d,e). […]

[1] = target: T2, aryl hydrocarbon receptor (AhR) (Homo sapiens, UniProt P35869); test: AhR/XRE-dependent luciferase reporter gene assay in XRE-HepG2 cells; type: cell-based; settings: XRE-HepG2 cells, 8 h; unit as in the supplements; read-out: AhR/XRE-dependent luciferase activity EC50
T2 construct: AhR-dependent reporter gene activity was determined in human HepG2 cells stably transfected with an XRE; endogenous in cells; host or cells: XRE-HepG2 (human HepG2 hepatoma cells stably carrying an XRE-luciferase plasmid)
T2 sequence (P35869 11-848): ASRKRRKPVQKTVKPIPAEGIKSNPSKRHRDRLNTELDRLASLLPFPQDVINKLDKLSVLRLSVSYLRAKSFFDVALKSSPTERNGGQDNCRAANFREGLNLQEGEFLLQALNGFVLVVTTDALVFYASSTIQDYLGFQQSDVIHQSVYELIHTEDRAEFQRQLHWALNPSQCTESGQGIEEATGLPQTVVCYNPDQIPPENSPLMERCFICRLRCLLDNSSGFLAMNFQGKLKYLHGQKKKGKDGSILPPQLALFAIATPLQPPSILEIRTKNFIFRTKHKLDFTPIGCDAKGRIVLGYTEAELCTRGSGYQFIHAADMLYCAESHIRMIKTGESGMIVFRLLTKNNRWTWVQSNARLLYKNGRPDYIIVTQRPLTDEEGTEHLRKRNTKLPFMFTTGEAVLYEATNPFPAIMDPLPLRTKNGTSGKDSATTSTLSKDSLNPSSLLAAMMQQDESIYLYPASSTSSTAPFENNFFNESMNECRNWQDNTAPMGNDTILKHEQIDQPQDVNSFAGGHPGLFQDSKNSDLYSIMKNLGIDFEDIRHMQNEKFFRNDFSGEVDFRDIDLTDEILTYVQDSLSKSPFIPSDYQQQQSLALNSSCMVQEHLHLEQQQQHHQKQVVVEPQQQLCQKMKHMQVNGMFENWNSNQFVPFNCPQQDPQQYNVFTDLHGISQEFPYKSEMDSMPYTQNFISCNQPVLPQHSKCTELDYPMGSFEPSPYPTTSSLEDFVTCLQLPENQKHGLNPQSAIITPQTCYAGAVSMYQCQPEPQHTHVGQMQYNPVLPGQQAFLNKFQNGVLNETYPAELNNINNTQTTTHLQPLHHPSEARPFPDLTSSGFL
Protocol: (f) AhR/XRE-dependent reporter gene activity results (EC50/μM).
Data are shown as mean ± SEM.
The human XRE -HepG2 reporter cell -line was a kind gift of K. Gradin and L. Poellinger (Karolinska Institute, Stockholm,
antibiotic/antimycotic solution, and 0.8 mg/ml G418. All cells were cultivated at 37 °C in a humidified atmosphere containing 5% CO 2.
AhR-dependent reporter gene activity was determined in human HepG2 cells stably transfected with an XRE -harboring luciferase plasmid (XRE-HepG2 cells). […] Luciferase activity was normalized to protein content.

AhR = target: T3, AhR (Homo sapiens, UniProt P35869); test: Global proteomics (TMT labeling, LC/MS) in MCF7 cells; type: cell-based; settings: 10 μM, 5 h
T3 construct: Degradation of endogenous AhR was further confirmed via Western blotting and global proteomics measurements in cells treated with 12b; host or cells: MCF7
T3 sequence (P35869 11-848): T2 sequence (P35869 11-848)
Protocol: as §1
Generation of reporter cell lines
The MCF7.AhR-GFP.IRES.mCherry and MCF7.AhRdPasB(d275-342)-GFP.IRES.mCherryreporter cell line was generated via lentivirus transduction. The coding sequence of the full length AhR (NM_001621.5), as well as the PasB deleted AhR (d275-342) were synthesized and cloned into a Lenti virus transfer plasmid (Artichoke, Addgene #73320), with hereby the resistance was swapped from puromycin to hygromycin. To produce the virus, 550k Lenti-X 293T cells (Takeda #632180) were seeded in a six-well plate with 3 mL of growth medium. The following day, a plasmid solution containing psPAX2 (500 ng), pVSV-G (5 ng), and AhR transfer plasmid (500 ng) was diluted in 21.5 μL of OPTIMEM, reaching a total volume of 32.5 μL. […]
For the flow cytometry experiments 150k cells were seeded in a 24 well-plate format in 0.5 mL growing medium and left to grow in the incubator for 16 h. […] They were subsequently measured on a BD LSR II and the data analyzed with FlowJo software (version 10.5.3, TreeStar). […]

T1 sequence (P08238 whole entry partner, one chain of several): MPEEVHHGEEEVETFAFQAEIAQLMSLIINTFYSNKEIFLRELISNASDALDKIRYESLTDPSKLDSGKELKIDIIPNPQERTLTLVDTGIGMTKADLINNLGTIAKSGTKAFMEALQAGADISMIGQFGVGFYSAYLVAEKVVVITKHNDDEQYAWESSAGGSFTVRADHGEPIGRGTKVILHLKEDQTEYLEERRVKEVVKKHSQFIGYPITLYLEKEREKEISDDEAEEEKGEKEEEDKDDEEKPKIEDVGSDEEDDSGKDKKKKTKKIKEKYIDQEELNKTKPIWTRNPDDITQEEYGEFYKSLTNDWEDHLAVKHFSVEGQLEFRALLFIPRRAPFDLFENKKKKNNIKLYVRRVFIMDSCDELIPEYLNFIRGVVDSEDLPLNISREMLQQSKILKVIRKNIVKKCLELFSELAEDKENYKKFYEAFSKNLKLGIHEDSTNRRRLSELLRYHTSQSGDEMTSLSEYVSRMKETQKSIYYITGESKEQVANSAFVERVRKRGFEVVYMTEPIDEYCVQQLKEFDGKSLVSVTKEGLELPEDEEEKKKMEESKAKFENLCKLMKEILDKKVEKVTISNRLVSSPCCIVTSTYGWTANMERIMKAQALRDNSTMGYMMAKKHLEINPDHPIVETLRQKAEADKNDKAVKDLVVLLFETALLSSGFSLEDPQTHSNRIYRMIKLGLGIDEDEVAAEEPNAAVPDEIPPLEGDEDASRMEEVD
T1 sequence (O00170 whole entry partner, one chain of several): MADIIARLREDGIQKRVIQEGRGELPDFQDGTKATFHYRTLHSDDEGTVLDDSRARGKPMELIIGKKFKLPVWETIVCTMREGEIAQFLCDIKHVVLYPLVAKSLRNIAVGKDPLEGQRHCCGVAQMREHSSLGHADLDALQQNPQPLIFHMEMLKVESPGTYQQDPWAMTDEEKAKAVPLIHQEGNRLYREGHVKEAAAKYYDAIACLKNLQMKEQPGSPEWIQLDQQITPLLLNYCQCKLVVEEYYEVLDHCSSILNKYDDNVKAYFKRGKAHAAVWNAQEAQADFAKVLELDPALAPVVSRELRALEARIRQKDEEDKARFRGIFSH

| Compound | UVA photosensitization (HaCaT cells) | AhR degradation in reporter system (AhR-GFP) | pEC50 [1] | degradation of common CRBN-thalidomide off-target factors (zinc finger proteins, GSPT1) (AhR) | induced transcriptional activity (CYP1A1 and CYP1B1 protein levels) (AhR) | selectivity of protein degradation (AhR) |
| --- | --- | --- | --- | --- | --- | --- |
| 6-formylindolo[3,2-b]carbazole [FICZ] | nanomolar sensitizer for UVA radiation | – | – | – | – | – |
| O=C1CCC(N2C(=O)c3cccc(OCCOCCOCCOCCNC(=O)c4ccc5c(-c6c7[nH]c8ccccc8c7cc7[nH]c8ccccc8c67)c[nH]c5c4)c3C2=O)C(=O)N1 (stereo not drawn) [12b] | – | pronounced AhR degradation | 6.70 | absence of degradation | upregulation of CYP1A1 and CYP1B1 | selectivity for AhR degradation |
